Laboratory results as given in patent US20060105967A1, “Flavone derivatives as TNFalpha inhibitors or antagonists” (Advanced Gene Technology, Corp., priority 2004, published 2006).

Legend:
TNFα = target: T1, TNFα (Homo sapiens, UniProt P01375); experiment: L929 cell proliferation/cytotoxicity assay, TNFα activity assay; format: cell-based
T1 construct: purchased
Experimental: (§1) L929 cells were cultured in Eagle's Minimal Essential Medium (MEM) containing 10% equine serum, 1% P/S and 1% non-essential amino acid. Confluent L929 cells were washed with 2 ml PBS (phosphate-buffered saline) solution and then trypsinized with 1 ml 1×trypsin, followed by resuspending in complete medium. Two hundred microliter of cell suspension was aspirated for cell density counting. […]. Add 100 μl of cell suspension to each well in 96-well flat-bottomed microtitre plates and incubated for 24 hrs in 5% CO2 atmosphere at 37° C. incubator.
Crude herbal extracts were resuspended in 1×PBS and sterilized with 0.22 μm filters. Varying concentrations of herbal extract were incubated for 1 hr with equal volume of commercial TNFα 0.2 ng/ml. Before the end of the 1 hr pre-incubation, removing the medium from the 24 hr incubated 96-well plate, and added a 50 μl fresh medium containing 4 μg/ml of Actinomycin D into the 96-well plate. Transferred the 50 μl of pre-incubated mixture of herbal extraction and TNFα to the 96-well plate with the medium containing Act D to give the final concentration of Act D (2 μg/ml), TNFα(0.1 ng/ml). […]
The same samples as those for TNFα activity assay were added to the 96-well plate with the medium containing Act D to give the final concentration of Act D 2 μg/ml. […] Read with ELISA (enzyme-linked immunosorbent assay) reader at O.D (optical density) 490/630 nm. […]

[1] = tested on: rats with collagen-induced arthritis; experiment: Anti-inflammatory effect on rats with collagen-induced arthritis; format: in vivo, rat; conditions: for decreased percentage of edema: IP
From the text: SD rats of SPF grade were supplied from BioLasco. Prior to performing the study, the animals were accommodated for 4 days after being received. Weighing, blood sampling, measuring the paw volumes and other related records for each animal were established. The rats were immunized and boosted with bovine collagen II-EFA (Incomplete Freund's Adjuvant, from Sigma) to induce arthritis (CIA). The CIA rats were grouped into 6 groups and daily injected with the drug candidates (myricitrin and quercetin-3-D-glucoside respectively). Dexamethasone (0.2 mg) was used as a positive control and 5% ethanol as a negative control. Treatment period was 7 days. Body weight and paw volumes were measured and blood sampling were collected at day 0, 3, 6, 10 and 14.
Six days after the final dosing, all the animals were sacrificed. The affected hind limbs were removed for histological assessment. The parameters of body weights and paw volumes were measured and compared for before, during and after treatment with drug candidates.

L929 cells = experiment: Cytotoxicity in L929 cells (XTT); format: cell-based; conditions: Act D 2 μg/ml, 24 hrs
Experimental: as §1
The same samples as those for TNFα activity assay were added to the 96-well plate with the medium containing Act D to give the final concentration of Act D 2 μg/ml. Mixed well by gently shaking and then incubated for 24 hrs in 5% CO2 atmosphere at 37° C. incubator. 50 μl XTT mixture (XTT−1: XTT−2=50:1) was added to each well, and incubated in a CO2 incubator for 4 hrs. Read with ELISA (enzyme-linked immunosorbent assay) reader at O.D (optical density) 490/630 nm. […]. Quercitrin and Myricitrin Identification (1) Thin-Layer Chromatography

[2] = CIA rats, 3rd day after treatment stopped (T4)
[3] = CIA rats, 7th day after treatment stopped (T5)

T1 sequence (P01375 77-233 limits assumed, species assumed): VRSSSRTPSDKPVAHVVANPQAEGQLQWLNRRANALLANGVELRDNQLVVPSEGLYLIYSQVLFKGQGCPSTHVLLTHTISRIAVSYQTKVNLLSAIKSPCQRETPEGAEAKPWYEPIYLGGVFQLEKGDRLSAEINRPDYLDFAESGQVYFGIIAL

| SMILES | IC50 (TNFα) [µM] | histopathological changes of joint ([1]; CIA rats treated (IP), hind limbs removed six days after final dosing) | decreased percentage of edema [1, 2] [%] | decreased percentage of edema [1, 3] [%] | decreased percentage of edema volumes for hind paws ([1]; CIA rats, daily injection (IP), treatment period / day 6 of treatment (T3), vs non-treatment paw volume) [%] | cell cytotoxicity (L929 cells) |
| --- | --- | --- | --- | --- | --- | --- |
| O=c1c(O[C@@H]2O[C@H](CO)[C@@H](O)[C@H](O)[C@H]2O)c(-c2ccc(O)c(O)c2)oc2cc(O)cc(O)c12 [quercetin-3-D-glucoside] | 95.7 | proliferation of synovial ling cell and infiltration of lymphocytes was shown | 24.93 | 80.47 | 8.59 |  |
| C[C@@H]1O[C@@H](Oc2c(-c3ccc(O)c(O)c3)oc3cc(O)cc(O)c3c2=O)[C@H](O)[C@H](O)[C@H]1O [quercitrin] | 161 |  |  |  |  | without cell cytotoxicity |
| C[C@@H]1C[C@H]2[C@@H]3CCC4=CC(=O)C=C[C@]4(C)[C@@]3(F)[C@@H](O)C[C@]2(C)[C@@]1(O)C(=O)CO [dexamethasone, reference compound] |  |  | 28.21 | 29.97 |  |  |
